Experimental data: patent publication US7531554B2, “4-oxoquinoline compound and use thereof as HIV integrase inhibitor” (Japan Tobacco Inc., priority 2004, dated 2009)
Structures can show the parent of a compound that is named as a salt.

What follows are molecules tested against T1, HIV integrase (Human immunodeficiency virus type 1 group M subtype B, UniProt P12497, F1332H) (assay: Determination of enzyme (HIV integrase) inhibitory activity). Settings: recombinant integrase protein (F185H), donor DNA/target DNA, absorbance at 450 nm.
T1 construct: HIV integrase full length gene (J. Virol., 67, 425-437 (1993)) in which phenylalanine at codon 185 was substituted by histidine; made in house; host or cells: Escherichia coli BL21(DE3)
Assay type: biochemical
Procedure: HIV integrase full length gene (J. Virol., 67, 425-437 (1993)) in which phenylalanine at codon 185 was substituted by histidine, was inserted between the restriction enzyme NdeI and XhoI sites of plasmid pET21a(+) (Novagen), whereby an integrase expression vector pET21a-IN-F185H was constructed.
Escherichia coli recombinant BL21(DE3) transformed with plasmid pET21a-IN-F185H obtained in (i) was shake cultured at 30° C. in a liquid medium containing ampicillin. When the culture reached the logarithmic growth phase, isopropyl-β-D-thiogalactopyranoside was added to promote expression of integrase gene. The culture was continued for 3 hr to promote accumulation of the integrase protein. The recombinant E. coli was collected in pellets by centrifugal separation and preserved at −80° C.
The E. coli was suspended in Lysis buffer (20 mM HEPES (pH 7.5), 5 mM DTT, 10 mM CHAPS, 10% glycerol) containing 1M sodium chloride and subjected to repeat pressurization and depressurization for rupture, and centrifugal separation at 4° C., 40,000×g, 60 min to recover a water-soluble fraction (supernatant). This was diluted 10-fold with Lysis buffer free of sodium chloride, mixed with SP-Sepharose (Pharmacia Corporation) and stirred at 4° C. for 60 min to allow adsorption of integrase protein to the resin. The resin was washed with Lysis buffer containing 100 mM sodium chloride and the integrase protein was eluted with Lysis buffer containing 1M sodium chloride.
The eluted integrase protein solution was subjected to a Superdex 75 (Pharmacia Corporation) column for gel filtration. The protein was eluted with Lysis buffer containing 1M sodium chloride.
The obtained fractions of the integrase protein were collected and preserved at −80° C.
The following DNA synthesized by Greiner was dissolved in TE buffer (10 mM Tris-hydrochloric acid (pH 8.0), 1 mM EDTA) and mixed with donor DNA, target DNA, and each complementary strand (+ and − strands) to 1 μM. The mixture was heated at 95° C. for 5 min, 80° C. for 10 min, 70° C. for 10 min, 60° C. for 10 min, 50° C. for 10 min and 40° C. for 10 min and kept at 25° C. to give a double stranded DNA, which was used for the test. Donor DNA ([…] attached to the 5′ terminal) Donor + strand: 5′-Biotin-ACCCTTTTAGTCAGTGTGGAAAATCTCTAGCA-3′ (SEQ ID NO:1) Donor − strand: 5′-ACTGCTAGAGATTTTCCACACTGACTAAAAG-3′ (SEQ ID NO:2) Target DNA (+, − strands both having digoxigenin added at 3′ terminal) Target + strand: 5′-TGACCAAGGGCTAATTCACT-Dig-3′ (SEQ ID NO:3) Target − strand: 5′-AGTGAATTAGCCCTTGGTCA-Dig-3′ (SEQ ID NO:4)
The donor DNA was diluted with TE buffer to 10 nM, of which 50 μl was added to each well of streptavidin-coated microtiter plate (Roche) and allowed to adsorb at 37° C. for 60 min. The plate was washed with phosphate buffer (Dulbecco's PBS, Sanko Junyaku Co., Ltd.) containing 0.1% Tween 20 and phosphate buffer. Then, an enzyme reaction mixture (70 μl), a test substance (10 μl) diluted with the reaction mixture and 100 μg/ml integrase protein (10 μl) were added to each well and reacted at 37° C. for 60 min.
Then, 50 nM target DNA (10 μl) was added, reacted at 37° C. for 10 min and washed with phosphate buffer containing 0.1% Tween 20 to stop the reaction.
Then, 100 mU/ml peroxidase labeled anti-digoxigenin antibody solution (Roche, 100 μl) was added, and the mixture was reacted at 37° C. for 60 min, followed by washing with phosphate buffer containing 0.1% Tween 20.
A peroxidase color solution (Bio Rad, 100 μl) was added and allowed to react at room temperature for 4 min. The color reaction was stopped by adding 1N sulfuric acid (100 μl). The absorbance at 450 nm was measured.
The HIV integrase inhibitory activity (IC50) of the compound of the present invention was calculated from the inhibition rate according to the following formula. […]

Row | SMILES | IC50 [nM]
1 | CC(C)[C@@H](CO)n1cc(C(=O)O)c(=O)c2cc(Cc3cccc(Cl)c3F)c(O[C@@H]3CCN(C)C3)cc21 [Example 4-55, 6-(3-chloro-2-fluorobenzyl)-1-((1S)-1-(hydroxymethyl)-2-methylpropyl)-7-((3R)-1-methylpyrrolidin-3-yloxy)-4-oxo-1,4-dihydroquinoline-3-carboxylic acid trifluoroacetate] | 7.6
2 | CC(C)[C@@H](CO)n1cc(C(=O)O)c(=O)c2cc(Cc3cccc(Cl)c3F)c(OCc3ccccn3)cc21 [Example 4-59, 6-(3-chloro-2-fluorobenzyl)-1-((1S)-1-(hydroxymethyl)-2-methylpropyl)-4-oxo-7-(pyridin-2-ylmethoxy)-1,4-dihydroquinoline-3-carboxylic acid] | 3.6
3 | CC(C)[C@@H](CO)n1cc(C(=O)O)c(=O)c2cc(Cc3cccc(Cl)c3F)cc(OCCCCO)c21 [Example 3-3, 6-(3-chloro-2-fluorobenzyl)-8-(4-hydroxybutoxy)-1-((1S)-1-(hydroxymethyl)-2-methylpropyl)-4-oxo-1,4-dihydroquinoline-3-carboxylic acid] | 6.3
4 | CO[C@H](C)[C@@H](CO)n1cc(C(=O)O)c(=O)c2cc(Cc3cccc(Cl)c3F)ccc21 [Example 2-15, 6-(3-chloro-2-fluorobenzyl)-1-((1R,2R)-1-(hydroxymethyl)-2-methoxypropyl)-4-oxo-1,4-dihydroquinoline-3-carboxylic acid] | 5.2
5 | CC(C)[C@@H](CO)n1cc(C(=O)O)c(=O)c2cc(Cc3cccc(Cl)c3F)c(OCCN3CCNCC3)cc21 [Example 4-33, 6-(3-chloro-2-fluorobenzyl)-1-((1S)-1-(hydroxymethyl)-2-methylpropyl)-4-oxo-7-(2-(piperazin-1-yl)ethoxy)-1,4-dihydroquinoline-3-carboxylic acid dihydrochloride] | 5.7
6 | CC(C)[C@@H](CO)n1cc(C(=O)O)c(=O)c2cc(Cc3cccc(Cl)c3F)c(N3CC[C@@H](N)C3)cc21 [Example 4-39, 7-((3R)-3-aminopyrrolidin-1-yl)-6-(3-chloro-2-fluorobenzyl)-1-((1S)-1-(hydroxymethyl)-2-methylpropyl)-4-oxo-1,4-dihydroquinoline-3-carboxylic acid] | 9.4
7 | CC(C)[C@@H](CO)n1cc(C(=O)O)c(=O)c2cc(Cc3cccc(Cl)c3F)cc(OCCO)c21 [Example 3-1, 6-(3-chloro-2-fluorobenzyl)-8-(2-hydroxyethoxy)-1-((1S)-1-(hydroxymethyl)-2-methylpropyl)-4-oxo-1,4-dihydroquinoline-3-carboxylic acid] | 5.1
8 | CCc1cc2c(cc1Cc1cccc(Cl)c1F)c(=O)c(C(=O)O)cn2[C@H](CO)C(C)C [Example 4-4, 6-(3-chloro-2-fluorobenzyl)-7-ethyl-1-((1S)-1-(hydroxymethyl)-2-methylpropyl)-4-oxo-1,4-dihydroquinoline-3-carboxylic acid] | 4.7
9 | CC(C)[C@@H](CO)n1cc(C(=O)O)c(=O)c2cc(Cc3cccc(Cl)c3F)c(OCc3ccc(C(N)=O)cc3)cc21 [Example 4-58, 7-(4-(aminocarbonyl)benzyloxy)-6-(3-chloro-2-fluorobenzyl)-1-((1S)-1-(hydroxymethyl)-2-methylpropyl)-4-oxo-1,4-dihydroquinoline-3-carboxylic acid] | 4.7
10 | COc1cc2c(cc1Cc1cccc(Cl)c1F)c(=O)c(C(=O)O)cn2C(CO)C1CCNCC1 (centres unmarked) [Example 2-2, 6-(3-chloro-2-fluorobenzyl)-1-(2-hydroxy-1-(piperidin-4-yl)ethyl)-7-methoxy-4-oxo-1,4-dihydroquinoline-3-carboxylic acid hydrochloride] | 12
11 | CC(C)[C@@H](CO)n1cc(C(=O)O)c(=O)c2cc(Cc3cccc(Cl)c3F)c(OCC(=O)N(C)C)cc21 [Example 4-53, 6-(3-chloro-2-fluorobenzyl)-7-((dimethylaminocarbonyl)methoxy)-1-((1S)-1-(hydroxymethyl)-2-methylpropyl)-4-oxo-1,4-dihydroquinoline-3-carboxylic acid] | 5
12 | COc1cc2c(cc1C(O)c1cccc(Cl)c1F)c(=O)c(C(=O)O)cn2[C@H](CO)C(C)C (single isomer, unassigned) [Example 7-8] | 39
13 | CC(C)([C@@H](CO)n1cc(C(=O)O)c(=O)c2cc(Cc3cccc(Cl)c3F)ccc21)S(C)(=O)=O [Example 2-10, 6-(3-chloro-2-fluorobenzyl)-1-((1R)-1-(hydroxymethyl)-2-mesyl-2-methylpropyl)-4-oxo-1,4-dihydroquinoline-3-carboxylic acid] | 4.2
14 | CC1CN(c2cc3c(cc2Cc2cccc(Cl)c2F)c(=O)c(C(=O)O)cn3[C@H](CO)C(C)C)CC(C)O1 (stereo partly drawn) [Example 4-31, 6-(3-chloro-2-fluorobenzyl)-7-(2,6-dimethylmorpholin-4-yl)-1-((1S)-1-(hydroxymethyl)-2-methylpropyl)-4-oxo-1,4-dihydroquinoline-3-carboxylic acid] | 13
15 | CC(C)[C@@H](CO)n1cc(C(=O)O)c(=O)c2cc(Cc3cccc(Cl)c3F)cc(OCCN(C)C)c21 [Example 3-6, 6-(3-chloro-2-fluorobenzyl)-8-(2-(dimethylamino)ethoxy)-1-((1S)-1-(hydroxymethyl)-2-methylpropyl)-4-oxo-1,4-dihydroquinoline-3-carboxylic acid] | 11
16 | CC(=O)N1CCC(Oc2cc3c(cc2Cc2cccc(Cl)c2F)c(=O)c(C(=O)O)cn3[C@H](CO)C(C)C)CC1 [Example 4-45, 7-((1-acetylpiperidin-4-yl)oxy)-6-(3-chloro-2-fluorobenzyl)-1-((1S)-1-(hydroxymethyl)-2-methylpropyl)-4-oxo-1,4-dihydroquinoline-3-carboxylic acid] | 13
17 | CNS(=O)(=O)COc1cc2c(cc1Cc1cccc(Cl)c1F)c(=O)c(C(=O)O)cn2[C@H](CO)C(C)C [Example 4-3, 6-(3-chloro-2-fluorobenzyl)-1-((1S)-1-(hydroxymethyl)-2-methylpropyl)-7-((methylamino)sulfonylmethoxy)-4-oxo-1,4-dihydroquinoline-3-carboxylic acid] | 4.7
18 | CC(C)[C@@H](CO)n1cc(C(=O)O)c(=O)c2cc(Cc3cccc(Cl)c3F)c(N3CCSCC3)cc21 [Example 4-32, 6-(3-chloro-2-fluorobenzyl)-1-((1S)-1-(hydroxymethyl)-2-methylpropyl)-4-oxo-7-(thiomorpholin-4-yl)-1,4-dihydroquinoline-3-carboxylic acid] | 7.1
19 | CC(C)[C@@H](CO)n1cc(C(=O)O)c(=O)c2cc(Cc3cccc(Cl)c3F)c(OCS(=O)(=O)N(C)C)cc21 [Example 4-28, 6-(3-chloro-2-fluorobenzyl)-7-((dimethylamino)sulfonylmethoxy)-1-((1S)-1-(hydroxymethyl)-2-methylpropyl)-4-oxo-1,4-dihydroquinoline-3-carboxylic acid] | 4.5
20 | CC(C)[C@@H](CO)n1cc(C(=O)O)c(=O)c2cc(Cc3cccc(Cl)c3F)c(OCCN(C)C)cc21 [Example 4-2, 6-(3-chloro-2-fluorobenzyl)-7-(2-(dimethylamino)ethoxy)-1-((1S)-1-(hydroxymethyl)-2-methylpropyl)-4-oxo-1,4-dihydroquinoline-3-carboxylic acid] | 6
